Key:
[1] = biological target: T1, ACAT 2 (Mus musculus, UniProt O88908); experiment: ACAT-inhibiting activity, mouse liver microsome membrane fraction, [14C]oleoyl-CoA; format: biochemical; conditions: for IC50: mouse liver microsome, 5 minutes at 37° C.; for Specific activity: (inhibitory activity of test compound)/(inhibitory activity of pyripyropene A): relative to pyripyropene A
T1 construct: The source of ACAT 2 enzyme used was a membrane fraction derived from mouse liver microsome; from tissue; host or cells: mouse liver (microsome fraction)
T1 sequence (O88908 1-525): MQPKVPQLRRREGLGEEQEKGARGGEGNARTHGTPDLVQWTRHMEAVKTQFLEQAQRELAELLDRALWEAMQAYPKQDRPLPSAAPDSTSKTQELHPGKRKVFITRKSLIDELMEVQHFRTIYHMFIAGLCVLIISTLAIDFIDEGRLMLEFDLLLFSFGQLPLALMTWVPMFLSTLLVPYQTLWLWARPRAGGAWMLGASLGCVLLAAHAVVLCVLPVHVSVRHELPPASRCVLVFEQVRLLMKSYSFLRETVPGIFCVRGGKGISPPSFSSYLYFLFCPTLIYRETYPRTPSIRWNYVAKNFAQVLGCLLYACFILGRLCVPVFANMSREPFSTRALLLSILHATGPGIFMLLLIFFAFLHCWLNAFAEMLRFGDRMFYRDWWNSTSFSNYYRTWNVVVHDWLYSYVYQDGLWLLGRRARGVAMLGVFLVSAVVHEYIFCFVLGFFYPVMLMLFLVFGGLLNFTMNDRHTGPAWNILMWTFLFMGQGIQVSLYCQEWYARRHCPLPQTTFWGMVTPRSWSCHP
Outline: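 Enzyme source: mouse liver microsomal membrane fraction (100000×g pellet) at 5 mg/ml protein in 50 mM Tris-HCl pH 7.8, 1 mM EDTA, 1 mM PMSF; substrate [14C]oleoyl-CoA. Chloroform-extracted lipids resolved by silica TLC in hexane/diethyl ether/acetic acid (70:30:1).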

[2] = system: apolipoprotein E-deficient mice; experiment: Total plasma cholesterol after 14 days of daily oral administration, high-fat feed; format: in vivo; conditions: for total plasma cholesterol at day 14 (% of day 0): day 0 taken as 100%, control 212.2%; for suppression of the increase in total plasma cholesterol compared with pyripyropene A: oral administration, apolipoprotein E-deficient mice
Method: Ten-week old apolipoprotein E-deficient mice (males, purchased from Jackson Laboratories) were kept under cycles of artificial light (day) for 12 hours and dark (night) for 12 hours by appropriately feeding a standard high-fat feed (D12079B, Research Diet). Before starting a test for each test compound, 100 μL of blood were collected from the caudal vein of each animal to measure the total cholesterol concentration in plasma using a commercially available kit (Determiner TC 555, Kyowa Medex). […] The test compound was orally administered daily at the start of the artificial light cycle of each day.
Blood was collected at the start of the artificial light cycle on day 14 of administration of the test compound to measure the total plasma cholesterol. The total plasma cholesterol before administration of the test compound (on day 0) was taken as 100%, and the percent increase in total plasma cholesterol on day 14 after administration of the test compound started was calculated.

Row | Structure (SMILES) | IC50 [1] [µM] | Specific activity: (inhibitory activity of test compound)/(inhibitory activity of pyripyropene A) [1] | total plasma cholesterol at day 14 (% of day 0) ([2]; 1 mg/kg oral daily) [%] | total plasma cholesterol at day 14 (% of day 0) ([2]; 10 mg/kg oral daily) [%] | total plasma cholesterol at day 14 (% of day 0) ([2]; 50 mg/kg oral daily) [%] | suppression of the increase in total plasma cholesterol compared with pyripyropene A [2]
1 | CC(C)C(=O)OCC1(C)C2C[C@H](OC(=O)c3ccc(C#N)cc3)[C@@]3(C)Oc4cc(-c5cccnc5)oc(=O)c4[C@H](O)C3[C@@]2(C)CC[C@@H]1OC(=O)C(C)C (stereo partly drawn) [PRD 056, 7-O-p-cyanobenzoyl-1,11-di-(O-isobutyryl)-1,7,11-trideacetylpyripyropene A] | 0.01 to 0.1 | +++ (50 > specific activity > 10) | 148.0 | 114.8 | 86.1 | to a greater degree than did pyripyropene A
2 | CC(=O)OCC1(C)C2C[C@H](OC(=O)c3ccc(C#N)cc3)[C@@]3(C)Oc4cc(-c5cccnc5)oc(=O)c4[C@H](O)C3[C@@]2(C)CC[C@@H]1OC(C)=O (stereo partly drawn) [PRD 017, 7-p-cyanobenzoyl-7-deacetylpyripyropene A] | 0.01 to 0.1 | +++ (50 > specific activity > 10) | 161.6 | 149.7 | 132.5 | to a greater degree than did pyripyropene A
3 | CC(=O)OCC1(C)C(OC(C)=O)CCC2(C)C1CC(OC(C)=O)C1(C)Oc3cc(-c4cccnc4)oc(=O)c3C(O)C21 (stereo not drawn) [Pyripyropene A, reference compound] |  |  |  | 177.3 | 174.0 | 
4 | COc1ccc(CC(=O)O[C@H]2CC3C(C)(COC(C)=O)[C@@H](OC(C)=O)CC[C@]3(C)C3[C@@H](O)c4c(cc(-c5cccnc5)oc4=O)O[C@@]32C)cc1 (stereo partly drawn) [PRD 087, 7-O-4-methoxyphenylacetyl-7-deacetylpyripyropene A] | 0.1 to 1 | + (5 > specific activity > 1) |  |  |  | 
5 | CSc1cccc(C(=O)O[C@H]2CC3C(C)(COC(C)=O)[C@@H](OC(C)=O)CC[C@]3(C)C3[C@@H](O)c4c(cc(-c5cccnc5)oc4=O)O[C@@]32C)c1 (stereo partly drawn) [PRD 023, 7-m-methylthiobenzoyl-7-deacetylpyripyropene A] | 0.01 to 0.1 | +++ (50 > specific activity > 10) |  |  |  | 
6 | C=Cc1cccc(C(=O)O[C@H]2CC3C(C)(COC(C)=O)[C@@H](OC(C)=O)CC[C@]3(C)C3[C@@H](O)c4c(cc(-c5cccnc5)oc4=O)O[C@@]32C)c1 (stereo partly drawn) [PRD 013, 7-m-vinylbenzoyl-7-deacetylpyripyropene A] | < 0.01 | +++ (50 > specific activity > 10) |  |  |  | 
7 | CC12COC(c3ccccc3)O[C@H]1CC[C@@]1(C)C2C[C@H](OC(=O)c2ccc(C#N)cc2)[C@@]2(C)Oc3cc(-c4cccnc4)oc(=O)c3[C@H](O)C12 (stereo partly drawn) [PRD 041, 1,11-O-benzylidene-7-O-p-cyanobenzoyl-1,7,11-trideacetylpyripyropene A] | 0.01 to 0.1 | + (5 > specific activity > 1) | 102.4 | 88.2 | 101.1 | to a greater degree than did pyripyropene A
8 | COc1ccccc1C(=O)O[C@H]1CC2C3(C)COC(c4ccccc4)O[C@H]3CC[C@]2(C)C2[C@@H](O)c3c(cc(-c4cccnc4)oc3=O)O[C@@]21C (stereo partly drawn) [PRD 042, 1,11-O-benzylidene-7-O-o-methoxybenzoyl-1,7,11-trideacetylpyripyropene A] | 0.01 to 0.1 | +++ (50 > specific activity > 10) |  |  |  | 
9 | COCCOCO[C@H]1CC2C(C)(COC(C)=O)[C@@H](OC(C)=O)CC[C@]2(C)C2[C@@H](O)c3c(cc(-c4cccnc4)oc3=O)O[C@@]21C (stereo partly drawn) [PRD 055, 7-deacetyl-7-O-methoxyethoxymethylpyripyropene A] | 0.01 to 0.1 | +++ (50 > specific activity > 10) |  |  |  | 
10 | CC(=O)OCC1(C)C2C[C@@H](I)[C@@]3(C)Oc4cc(-c5cccnc5)oc(=O)c4[C@H](O)C3[C@@]2(C)CC[C@@H]1OC(C)=O (stereo partly drawn) [PRD 064, 7-(R)-iodo-7-(S)-deacetylpyripyropene A] | 0.1 to 1 | + (5 > specific activity > 1) |  |  |  | 
11 | CC(=O)OCC1(C)C2C[C@H](OC(=O)c3ccc(C#N)c(F)c3)[C@@]3(C)Oc4cc(-c5cccnc5)oc(=O)c4[C@H](O)C3[C@@]2(C)CC[C@@H]1OC(C)=O (stereo partly drawn) [PRD 112, 7-O-p-cyano-m-fluorobenzoyl-7-deacetylpyripyropene A] |  | +++ (50 > specific activity > 10) |  |  |  | 
12 | CC(=O)OCC1(C)C2C[C@H](OC(=O)c3cnccn3)[C@@]3(C)Oc4cc(-c5cccnc5)oc(=O)c4[C@H](O)C3[C@@]2(C)CC[C@@H]1OC(C)=O (stereo partly drawn) [PRD 096, 7-O-pyrazinecarboxyl-7-deacetylpyripyropene A] | 0.1 to 1 | + (5 > specific activity > 1) |  |  |  | 
13 | CC(=O)OCC1(C)C2C[C@H](OC(=O)c3cccc4ccccc34)[C@@]3(C)Oc4cc(-c5cccnc5)oc(=O)c4[C@H](O)C3[C@@]2(C)CC[C@@H]1OC(C)=O (stereo partly drawn) [PRD 038, 7-1-naphthoyl-7-deacetylpyripyropene A] | 0.01 to 0.1 | ++ (10 > specific activity > 5) |  |  |  | 
14 | CC12COC(c3ccccc3)O[C@H]1CC[C@@]1(C)C2C[C@H](OC(=O)c2ccc([N+](=O)[O-])cc2)[C@@]2(C)Oc3cc(-c4cccnc4)oc(=O)c3[C@H](O)C12 (stereo partly drawn) [PRD 045, 1,11-O-benzylidene-7-O-p-nitrobenzoyl-1,7,11-trideacetylpyripyropene A] | 0.01 to 0.1 | ++ (10 > specific activity > 5) |  |  |  | 
15 | CC(=O)OCC1(C)C(OC(C)=O)CCC2(C)C1CC(OC(=O)c1ccc(C)cc1)C1(C)Oc3cc(-c4cccnc4)oc(=O)c3C(O)C21 (stereo not drawn) [PRD 009] |  | ++++ (100 > specific activity > 50) |  |  |  | 
16 | CC12COC(c3ccccc3)O[C@H]1CC[C@@]1(C)C2C[C@H](OC(=O)c2ccccc2Cl)[C@@]2(C)Oc3cc(-c4cccnc4)oc(=O)c3[C@H](O)C12 (stereo partly drawn) [PRD 049, 1,11-O-benzylidene-7-O-o-chlorobenzoyl-1,7,11-trideacetylpyripyropene A] | 0.01 to 0.1 | +++ (50 > specific activity > 10) |  |  |  | 

Reference: patent US8519128B2, “Pyripyropene derivatives having an ACAT2-inhibiting activity” (The Kitasato Institute, priority 2007, dated 2013)
